# Reference: paper PMC9343080, “Distribution- and Metabolism-Based Drug Discovery: A Potassium-Competitive Acid Blocker as a Proof of Concept” (Research, 2022)
# Like-named read-outs stand apart in the source and are kept apart here.
# Key:
# [1] = pKa measurement (pH-metric method); format: physicochemical
# Procedure: Procedure for pKa and log D7.4 measurements. The pKa was determined using pH-metric Method from DMSO Stock Solution. Procedure for Log D determinations: 15 µL of stock solutions of test compounds and control compound was placed in order into their proper 96-well rack. 500 µL of PBS saturated 1-octanol was added into each vial of the cap-less Log D plate followed by the addition of 500 µL of 1-octanol saturated PBS (pH 7.4). One stir stick was added to each vial and a molded PTFE/Silicone plug was used to seal each vial. Then the Log D plate was transferred to the Eppendorf Thermomixer Comfort plate shaker and shaken at 25°C at 1,100 RPM for 1 hour. After completion of 1 hour, plugs were removed and the stir sticks were removed using a big magnet. The samples were then centrifuged at 25°C at 20,000 g for 20 minutes to separate the phases, and pipette and syringe were used to remove the upper (1-octanol) and lower (buffer) phases to the empty tubes, respectively. Aliquots of 5 µL were taken from upper phases followed by addition of 495 µL of a mixture of H2O and acetonitrile (1:1 in v/v). Vortex for 1 minute, and then aliquots of 50 µL were taken from the diluent followed by addition of 450 µL of a mixture of H2O and acetonitrile (1:1 in v/v). And aliquots of 50 µL were taken from lower phases followed by addition of 450 µL of a mixture of H2O and acetonitrile (1:1 in v/v). 200 μL of diluent was transferred to a new 96-well plate for LC-MS/MS analysis. The dilution factor was changed according to the Log D value and the LC-MS signal response. The concentrations of test compound and control compound in 1-octanol/buffer solution were evaluated by LC-MS/MS. The Log D values of the test compounds and control compound were calculated as follows: […]
# [2] = tested on: histamine-stimulated gastric acid secretion; test: In vivo inhibition of histamine-stimulated acid secretion in anesthetized rats; parameters: species or system rat; settings: for Total acid output, histamine-stimulated model / Inhibition (%), histamine-stimulated model: rats
# Procedure: 60 SPF SD rats weighing 180-220 g were randomly divided into […]: sham, model, SH-337 (2 mg/kg and 4 mg/kg), vonoprazan (2 mg/kg), males and females are equally divided. Fasting for 24 hours, model and sham groups were treated with deionized water. Drugs and vehicle were given through intragastric administration to rats before anesthesia. 1 h after administration, pylorus was ligated. 5 min later, histamine 2HCl (30 mg/10 mL/kg) was injected subcutaneously. At 3 h after histamine administration, the rats were killed by CO2 asphyxiation. The gastric contents were collected in a 10 mL centrifuge tube after removing their stomachs. Centrifuge at 3000 g for 10 min, and then, determine the total acid output during a 3 h period by 0.1 M NaOH [52, 53]. %Inhibition = (average of modelacid–drugacid)/average of modelacid × 100%.
smiles,measurement,setting,value
"CNCc1cc(-c2ccc(OCC3CC3)cc2F)n(S(=O)(=O)c2cccnc2)c1.Cl.Cl [SH-337, 1-(5-(4-(cyclopropylmethoxy)-2-fluorophenyl)-1-(pyridin-3-ylsulfonyl)-1H-pyrrol-3-yl)-N-methylmethanamine dihydrochloride]",pKa,[1],9.03
same,pKa,[1]; read-out: pKa,9
same,In vivo efficacy (% inhibition),"[2]; histamine-induced acid secretion in rats, 2 mg/kg, i.g. (Table 2)",83%
same,"Total acid output, histamine-stimulated model",[2]; i.g. 2 mg/kg,0.31 ± 0.39^∗∗ 10^−4 mol
same,"Inhibition (%), histamine-stimulated model",[2]; i.g. 2 mg/kg (Table 6),80%
same,"Inhibition (%), histamine-stimulated model",[2]; i.g. 4 mg/kg,93%
same,"Total acid output, histamine-stimulated model",[2]; i.g. 4 mg/kg,0.14 ± 0.48^∗∗ 10^−4 mol
